In patent US8338472B2, “Hexahydrocyclopentyl[F]indazole carboxamides and derivatives thereof as selective glucocorticoid receptor modulators” (Merck Sharp & Dohme Corp., priority 2008, dated 2012):
Where two headings read alike, the source gives them in different places.

How the values were obtained:
[1] = target: T1, glucocorticoid receptor (GR) (Homo sapiens, UniProt P04150); test: Ligand binding assay (GR BIND), 3H-dexamethasone displacement in MDA-MB-453 cell lysate; settings: GR BIND Ki, Table 1
T1 sequence (P04150 1-777): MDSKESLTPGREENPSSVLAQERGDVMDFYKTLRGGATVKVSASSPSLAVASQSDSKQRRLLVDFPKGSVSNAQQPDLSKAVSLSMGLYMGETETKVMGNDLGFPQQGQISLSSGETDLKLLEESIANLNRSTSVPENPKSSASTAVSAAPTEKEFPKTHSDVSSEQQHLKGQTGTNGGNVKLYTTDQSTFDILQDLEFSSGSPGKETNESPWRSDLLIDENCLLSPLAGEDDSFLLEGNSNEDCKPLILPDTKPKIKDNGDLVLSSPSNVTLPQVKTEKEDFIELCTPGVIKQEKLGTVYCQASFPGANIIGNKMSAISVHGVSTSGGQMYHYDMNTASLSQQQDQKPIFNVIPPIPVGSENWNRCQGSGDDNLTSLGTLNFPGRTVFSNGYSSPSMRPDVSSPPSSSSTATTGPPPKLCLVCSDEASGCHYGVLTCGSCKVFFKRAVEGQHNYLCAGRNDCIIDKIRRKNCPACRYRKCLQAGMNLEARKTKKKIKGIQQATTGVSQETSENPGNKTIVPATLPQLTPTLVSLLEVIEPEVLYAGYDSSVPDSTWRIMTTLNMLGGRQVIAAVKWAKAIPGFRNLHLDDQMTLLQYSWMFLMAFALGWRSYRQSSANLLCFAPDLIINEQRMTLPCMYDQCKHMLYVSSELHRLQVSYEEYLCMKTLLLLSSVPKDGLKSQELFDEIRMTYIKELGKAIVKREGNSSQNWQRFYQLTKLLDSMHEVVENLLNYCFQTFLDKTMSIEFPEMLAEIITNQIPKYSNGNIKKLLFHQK

Glucocorticoid Receptor = target: T2, Glucocorticoid Receptor (Homo sapiens, UniProt P04150); test: Trans-Activation Modulation of Glucocorticoid Receptor (GRAMMER), MMTV-LUC reporter gene in A549 cells; format: cell-based; settings: Table 1; for Transactivation A549 Cells GRAMMER Emax / Emax: Emax relative to 300 nM dexamethasone; for EC50: inflection point, read-out: Transactivation A549 Cells GRAMMER IP; for Transactivation A549 Cells GRAMMER Emax / EC50: A549 cells; for Emax: A549, A549 cells, read-out: Transactivation A549 Cells GRAMMER Emax
T2 construct: These cells express large amount of the GR and are very responsive to GC treatment; endogenous in cells; host or cells: A549 cells transiently transfected with the MMTV-LUC reporter
T2 sequence (P04150 1-777): T1 sequence (P04150 1-777)
Summary of the method: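 Luciferase from a transiently transfected MMTV-LUC reporter was measured after 24 h compound exposure (≤1% DMSO) in A549 or MDA-MB-453 cells. For antagonism, the decrease of 10 nM dexamethasone-induced signal was calculated. For agonism, Emax was referenced to 300 nM dexamethasone.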

human GR = target: T3, human GR (Homo sapiens, UniProt P04150); test: Transrepression Assay (GITAR), TNFα-β-lactamase reporter gene in U937 cells; format: cell-based; settings: for GITAR Greater than by GRAMMER % SEP: GITAR Emax minus GRAMMER Emax; for EC50: inflection point, read-out: Transrepression U937 Cells GITAR IP; for EC50 / Transrepression U937 Cells GITAR Emax: U937 cells
T3 construct: U937 cells contain an endogenous glucocorticoid receptor (GR); endogenous in cells; host or cells: U937 cells stably transfected with the TNF-alpha promoter/beta-lactamase reporter
T3 sequence (P04150 1-777): T1 sequence (P04150 1-777)
Summary of the method: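 Repression of PMA (5 ng/ml final)/LPS (100 ng/ml final)-induced TNF-α promoter activity, read as β-lactamase cleavage of CCF2-AM, in stably transfected U937 cells expressing native GR. Compound added 30-45 min before stimulation, overnight (~18 hr) 37° C; normalized to 100 nM dexamethasone (100%).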

[2] = U-937, U937 cells, activity repressed by 100 nM dexamethasone = 100%, Table 1, read-out: Transrepression U937 Cells GITAR Emax
[3] = U-937, text statement, 100 nM dexamethasone = 100%, read-out: maximal activity in the transrepression assay (GITAR)
[4] = activity repressed by 100 nM dexamethasone = 100%, Table 1

Structure (SMILES)	Ki [1] [nM]	Transactivation A549 Cells GRAMMER Emax (Glucocorticoid Receptor) [%]	EC50 (Glucocorticoid Receptor) [nM]	GITAR Greater than by GRAMMER % SEP (human GR; Table 1) [%]	Emax (human GR; [2]) [%]	Emax (human GR; [3]) [%]	EC50 (human GR; Table 1) [nM]	Transrepression U937 Cells GITAR Emax (human GR; [4]) [%]	Emax (Glucocorticoid Receptor) [%]
CN(CC(O)C(F)(F)F)C(=O)[C@H]1CCC2=Cc3c(cnn3-c3ccccc3)C[C@@]21C (stereo partly drawn) [Compound 74, (4αR,5S)-N,4α-dimethy1-1-phenyl-N-(3,3,3-trifluoro-2-hydroxypropyl)-1,4,4α,5,6,7-hexahydrocyclopenta[f]indazole-5-carboxamide]	10.6	38.8	276	35.1	73.9	> 5	381	–	–
CN(CC(O)C(F)(F)F)C(=O)[C@H]1CCC2=Cc3c(cnn3-c3ccccc3)C[C@@]21C (stereo partly drawn) [Compound 75, (4αR,5S)-N,4α-dimethyl-1-phenyl-N-(3,3,3-trifluoro-2-hydroxypropyl)-1,4,4α,5 ,6,7-hexahydrocyclopenta[f]indazole-5-carboxamide]	7.6	65.2	164	18.9	–	–	181	84.0	–
CCN(CC(O)C(F)(F)F)C(=O)[C@H]1CCC2=Cc3c(cnn3-c3ccccc3)C[C@@]21C (stereo partly drawn) [Compound 76, (4αR,5S)-N-ethyl-4α-methyl-1-phenyl-N-(3,3,3-trifluoro-2-hydroxypropyl)-1,4,4α,5,6,7-hexahydrocyclopenta[f]indazole-5-carboxamide]	4.2	–	314	6.1	84.3	> 5	225	–	78.2
CCN(CC(O)C(F)(F)F)C(=O)[C@H]1CCC2=Cc3c(cnn3-c3ccccc3)C[C@@]21C (stereo partly drawn) [Compound 77, (4αR,5S)-N-ethyl-4α-methyl-1-phenyl-N-(3,3,3-trifluoro-2-hydroxypropyl)-1,4,4α,5,6,7-hexahydrocyclopenta[f]indazole-5-carboxamide]	9.8	67.8	304	10.2	–	–	266	78.0	–
CCCN(CC(O)C(F)(F)F)C(=O)[C@H]1CCC2=Cc3c(cnn3-c3ccccc3)C[C@@]21C (stereo partly drawn) [Compound 78, (4αR,5S)-4α-methyl-1-phenyl-N-propyl-N-(3,3,3-trifluoro-2-hydroxypropyl)-1,4,4α,5,6,7-hexahydrocyclopenta[f]indazole-5-carboxamide]	2.7	–	165	21.0	86	> 5	179	–	65
CCCCN(CC(O)C(F)(F)F)C(=O)[C@H]1CCC2=Cc3c(cnn3-c3ccccc3)C[C@@]21C (stereo partly drawn) [Compound 79, (4αR,5S)-N-butyl-4α-methyl-1-phenyl-N-(3,3,3-trifluoro-2-hydroxypropyl)-1,4,4α,5,6,7-hexahydrocyclopenta[f]indazole-5-carboxamide]	3.8	–	180	17.6	88.3	> 5	163	–	70.7
CC(C)CN(CC(O)C(F)(F)F)C(=O)[C@H]1CCC2=Cc3c(cnn3-c3ccccc3)C[C@@]21C (stereo partly drawn) [Compound 80, (4αR,5S)-N-isobutyl-4a-methyl-1-phenyl-N-(3,3,3-trifluoro-2-hydroxypropyl)-1,4,4α,5,6,7-hexahydrocyclopenta[f]indazole-5-carboxamide]	3.7	–	222	12.8	83.2	> 5	337	–	70.5
C[C@]12Cc3cnn(-c4ccccc4)c3C=C1CC[C@@H]2C(=O)N(CC1CC1)CC(O)C(F)(F)F (stereo partly drawn) [Compound 81, (4αR,5S)-N-(cyclopropylmethyl)-4α-methyl-1-phenyl-N-(3,3,3-trifluoro-2-hydroxypropyl)-1,4,4α,5,6,7-hexahydrocyclopenta[f]indazole-5-carboxamide]	3.6	–	293	7.8	75.6	> 5	337	–	67.8

Other lines, results leading:

Ki [1] [nM]	Transactivation A549 Cells GRAMMER Emax (Glucocorticoid Receptor) [%]	EC50 (Glucocorticoid Receptor) [nM]	GITAR Greater than by GRAMMER % SEP (human GR; Table 1) [%]	Emax (human GR; [2]) [%]	Emax (human GR; [3]) [%]	EC50 (human GR; Table 1) [nM]	Transrepression U937 Cells GITAR Emax (human GR; [4]) [%]	Emax (Glucocorticoid Receptor) [%]	Structure (SMILES)
0.9	–	274	32.8	43.1	> 5	362	–	10.3	Cc1ccc(CCN(CC(O)C(F)(F)F)C(=O)[C@H]2CCC3=Cc4c(cnn4-c4ccc(F)cc4)C[C@@]32C)cc1 (stereo partly drawn) [Compound 82, (4αR,5S)-1-(4-fluorophenyl)-4α-methyl-N-[2-(4-methylphenyl)ethyl]-N-(3,3,3-trifluoro-2-hydroxypropyl)-1,4,4α,5,6,7-hexahydrocyclopenta[f]indazole-5-carboxamide]
2.2	–	366	35.3	56.9	> 5	293	–	21.6	COc1ccccc1CCN(CC(O)C(F)(F)F)C(=O)[C@H]1CCC2=Cc3c(cnn3-c3ccc(F)cc3)C[C@@]21C (stereo partly drawn) [Compound 83, (4αR,5S)-1-(4-fluorophenyl)-N-[2-(2-methoxyphenyl)ethyl] -4α-methyl-N-(3,3,3-trifluoro-2-hydroxypropyl)-1,4,4α,5,6,7-hexahydrocyclopenta[f]indazole-5-carboxamide]
0.8	43.7	188	25.7	–	> 5	191	69.4	–	C[C@]12Cc3cnn(-c4ccc(F)cc4)c3C=C1CC[C@@H]2C(=O)N(CCc1ccccc1F)CC(O)C(F)(F)F (stereo partly drawn) [Compound 84, (4αR,5S)-1-(4-fluorophenyl)-N-[2(2-fluorophenyl)ethyl]-4α-methyl-N-(3,3,3-trifluoro-2-hydroxypropyl)-1,4,4α,5,6,7-hexahydrocyclopenta[f]indazole-5-carboxamide]
3.5	–	399	31.1	45.3	> 5	818	–	14.2	Cc1ccc(CCN(CC(O)CC(F)(F)F)C(=O)[C@H]2CCC3=Cc4c(cnn4-c4ccc(F)cc4)C[C@@]32C)cc1 (stereo partly drawn) [Compound 85, (4αR,5S)-1-(4-fluorophenyl)-4α-methyl-N-[2-(4-methylphenyl)ethyl]-N-(4,4,4-trifluoro-2-hydroxybutyl)-1,4,4α,5,6,7-hexahydrocyclopenta[f]indazole-5-carboxamide]
11.5	–	412	35.1	53.9	> 5	869	–	18.8	COc1ccccc1CCN(CC(O)CC(F)(F)F)C(=O)[C@H]1CCC2=Cc3c(cnn3-c3ccc(F)cc3)C[C@@]21C (stereo partly drawn) [Compound 86, (4αR,5S)-1-(4-fluorophenyl)-N-[2-(2-methoxyphenyl)ethyl]-4α-methyl-N-(4,4,4-trifluoro-2-hydroxybutyl)-1,4,4α,5 ,6,7-hexahydrocyclopenta[f]indazole-5-carboxamide]
0.8	38.0	287	23.1	–	> 5	232	61.1	–	C[C@]12Cc3cnn(-c4ccc(F)cc4)c3C=C1CC[C@@H]2C(=O)N(CCc1ccccc1F)CC(O)CC(F)(F)F (stereo partly drawn) [Compound 87, (4αR,5S)-1-(4-fluorophenyl)-N-[2-(2-fluorophenyl)ethyl]-4α-methyl-N-(4,4,4-trifluoro-2-hydroxybutyl)-1,4,4α,5,6,7-hexahydrocyclopenta[f]indazole-5-carboxamide]
